Experimental data from PubChem BioAssay (NCI).
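Dose response: 5 concentrations. Exposure: 48 h. Format: 96-well plates. Endpoint: linear interpolation; highest concentration if not reached. GI50 marks 50% less growth. At the TGI there is no net growth.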

Legend:
Assay in all cases: growth of human tumour cells (NCI), 48 h
[1] = system: RPMI-8226 leukemia
[2] = system: A498 renal
[3] = system: SNB-75 CNS
[4] = system: SK-MEL-28 melanoma
[5] = system: TK-10 renal
[6] = system: PC-3 prostate
[7] = system: MDA-MB-435
[8] = system: SK-OV-3 ovarian
[9] = system: NCI-H226 lung
[10] = system: HOP-62 NSCLC
[11] = system: SW-620 colon
[12] = system: MOLT-4 leukemia
[13] = system: IGROV1 ovarian
[14] = system: SK-MEL-2 melanoma
[15] = system: SN12C renal
[16] = system: SF-539 CNS
[17] = system: RXF 393 renal
[18] = system: HCT-15 colon
[19] = system: HOP-92 NSCLC
[20] = system: MCF7 breast
[21] = system: SF-295 CNS
[22] = system: 786-0 renal
[23] = system: MDA-MB-231 breast
[24] = system: U251 CNS
[25] = system: OVCAR-4 ovarian
[26] = system: K-562 leukemia
[27] = system: HL-60(TB) leukemia
[28] = system: NCI-H460 lung
[29] = system: KM12 colon
[30] = system: SF-268 CNS
[31] = system: UACC-257 melanoma
[32] = system: HCC-2998 colon
[33] = system: COLO 205 colon
[34] = system: CAKI-1 renal
[35] = system: OVCAR-8 ovarian
[36] = system: T-47D breast
[37] = system: NCI/ADR-RES ovarian
[38] = system: UACC-62 melanoma
[39] = system: NCI-H23 lung
[40] = system: SNB-19 CNS
[41] = system: MALME-3M melanoma
[42] = system: HS 578T breast
[43] = system: HCT-116 colon
[44] = system: NCI-H522 lung
[45] = system: ACHN renal
[46] = system: M14 melanoma
[47] = system: SK-MEL-5 melanoma
[48] = system: HT29 colon
[49] = system: UO-31 renal
[50] = system: BT-549 breast
[51] = system: DU-145 prostate
[52] = system: A549 NSCLC
[53] = system: LOX IMVI melanoma
[54] = system: EKVX NSCLC
[55] = system: OVCAR-5 ovarian
[56] = system: SR leukemia
[57] = system: OVCAR-3 ovarian
[58] = system: CCRF-CEM leukemia

## COc1ccc(/C(=N/Nc2ccc([N+](=O)[O-])cc2)Sc2cc(Cl)c(C)cc2S(N)(=O)=O)cc1
[1]
  GI50: 5.11 µM
  TGI: 13.6 µM
[2]
  GI50: 0.107 µM
  TGI: 2.68 µM
[3]
  GI50: 2.68 µM
  TGI: 6.39 µM
[4]
  GI50: 6.57 µM
  TGI: 16.6 µM
[5]
  GI50: 2.47 µM
  TGI: 6.73 µM
[6]
  GI50: 5.2 µM
  TGI: 17.6 µM
[7]
  GI50: 4.67 µM
  TGI: 13.3 µM
[8]
  GI50: 5.89 µM
  TGI: 12.7 µM
[9]
  GI50: 3.52 µM
  TGI: 9.63 µM
[10]
  GI50: 5.94 µM
  TGI: 16.4 µM
[11]
  GI50: 5.86 µM
  TGI: 18.2 µM
[12]
  GI50: 5.02 µM
  TGI: 16.5 µM
[13]
  GI50: 9.65 µM
  TGI: > 93.2 µM
[14]
  GI50: 12.3 µM
  TGI: 34 µM
[15]
  GI50: 2.2 µM
  TGI: 4.29 µM
[16]
  GI50: 3.74 µM
  TGI: 9.81 µM
[17]
  GI50: 4.3 µM
  TGI: 11.5 µM
[18]
  GI50: 7.25 µM
  TGI: > 40.8 µM
[19]
  GI50: 2.47 µM
  TGI: 8.01 µM
[20]
  GI50: 4.84 µM
  TGI: 15.6 µM
[21]
  GI50: 3.31 µM
  TGI: 8.78 µM
[22]
  GI50: 4.21 µM
  TGI: 14.9 µM
[23]
  GI50: 3.04 µM
  TGI: 8.21 µM
[24]
  GI50: 7.13 µM
  TGI: 24.3 µM
[25]
  GI50: 2.61 µM
  TGI: 7.11 µM
[26]
  GI50: 4.67 µM
  TGI: 15.4 µM
[27]
  GI50: 40.3 µM
  TGI: > 100 µM
[28]
  GI50: 5.55 µM
  TGI: 24.2 µM
[29]
  GI50: 3.22 µM
  TGI: 9.96 µM
[30]
  GI50: 6.66 µM
  TGI: 19.9 µM
[31]
  GI50: 13 µM
  TGI: 26.4 µM
[32]
  GI50: 4.29 µM
  TGI: 8.75 µM
[33]
  GI50: 8.57 µM
  TGI: 33.3 µM
[34]
  GI50: 4.44 µM
  TGI: 9.47 µM
[35]
  GI50: 7.28 µM
  TGI: > 57 µM
[36]
  GI50: 7.16 µM
  TGI: 19.2 µM
[37]
  GI50: 5.42 µM
  TGI: 14.1 µM
[38]
  GI50: 3.02 µM
  TGI: 8.54 µM
[39]
  GI50: 4.69 µM
  TGI: 9.77 µM
[40]
  GI50: 7.06 µM
  TGI: 20.3 µM
[41]
  GI50: 3.13 µM
  TGI: 10.1 µM
[42]
  GI50: 4.82 µM
  TGI: 16 µM
[43]
  GI50: 2.31 µM
  TGI: 5.48 µM
[44]
  GI50: 13.1 µM
  TGI: 38.1 µM
[45]
  GI50: 6.34 µM
  TGI: 17.5 µM
[46]
  GI50: 5.75 µM
  TGI: 15.3 µM
[47]
  GI50: 0.706 µM
  TGI: 7.43 µM
[48]
  GI50: 2.91 µM
  TGI: 6.89 µM
[49]
  GI50: 8.49 µM
  TGI: > 41.7 µM
[50]
  GI50: 22.2 µM
  TGI: 42.3 µM
[51]
  GI50: 3.8 µM
  TGI: 9.77 µM
[52]
  GI50: 5.25 µM
  TGI: 18.1 µM
[53]
  GI50: 3.68 µM
  TGI: 10.4 µM
[54]
  GI50: 3.34 µM
  TGI: 10.9 µM
[55]
  GI50: 7.59 µM
  TGI: 19.2 µM
[56]
  GI50: 2.17 µM
  TGI: 5.41 µM
[57]
  GI50: 2.52 µM
  TGI: 7.4 µM
[58]
  GI50: 6.45 µM
  TGI: 33.9 µM
